Data: US20090291887A1, “Proteins of the SDF-1-Family for the Manufacturing of a Medicament” (priority 2006, published 2009)

What was measured:
DRG neurons = assay: Myelin-inhibition assay (neurite growth of DRG neurons on laminin/myelin); assay type: cell-based, rat
Protocol: Spinal neurons from the dorsal root ganglia (DRG) of young rats (day 6 postnatal) were plated in parallel on culture substrates coated with either poly-D-lysine (PDL)/laminin (13 μg/ml) or PDL/laminin (13 μg/ml)+myelin (200 ng/culture). The myelin preparation has been obtained from rat brain by biochemical fractionation and employed as a suspension for coating the culture dishes.
The images shown in FIGS. 1-3 were recorded by immunofluorescence microscopy with PAM (panaxonal marker/neurofilament) antibody, and the visualization was effected by fluorescent dye (Alexa).

[1] = tested on: Ser-133 phosphorylated CREB in DRG neurons; assay: PhosphoCREB assay; assay type: cell-based, rat; details: P6 DRG neurons; 200 ng/ml; versus untreated cultures (FIG. 5)
Protocol: Determination of Ser-133 phosphorylated CREB was performed on glass coverslips coated with PDL (1 mg/ml, Sigma) and laminin (13 μg/ml, Sigma). Dissociated DRGs were plated at a density of 5×10^4 cells/cm2 and incubated in DMEM containing 10% fetal bovine serum, nerve growth factor-2.5S, penicilline/streptomycine, and 5′-fluoro-2′-desoxyuridine for 24 h. Cells were stimulated by application of either 200 ng/ml SDF-1a/CXCL12 or 6 μM forskolin (Sigma), respectively, for 1-120 min. Samples were fixed with […] and stained for phophoCREB. Nuclei of P6 DRG neurons were stained with DAPI. For quantitative analysis of phosphoCREB-immunoreactivity, 30 pictures per coverslip were taken randomly at 20× magnification, and the number of neurons displaying phosphoCREB-positive nuclei as well as the total number of neurons were determined.

CST-lesioned adult rats = assay: Rat model of spinal cord transection, CST axon sprouting (BDA tracing); assay type: in vivo
Protocol: The dura was opened at the thoracic level, and the vertebrae Th8 and Th9 were removed. The dorsal CST, dorsal columns and central canal were transected using a Scouten wire knife (Bilaney, Germany). Following the surgery, a silicon tube catheter was placed in the subdural space at 1 mm caudal to the lesion, and was connected to a mini-osmotic pump (Alzet) containing 200 μl of either SDF-1a/CXCL12 (10 μM in PBS) or Tris buffer. After the pump was fixed in place, the dura and overlying tissue were sutured, and the animals were allowed to recover. Application of either SDF-1a/CXCL12 or Tris buffer was carried out at a flow rate of 1 μl/h over a time period of 7 days. One week after lesion, the pump was removed in a second surgery.
A total volume of 2.3 μl biotinylated dextrane amine, BDA, (10%, Molecular Probes) was stereotactically injected into both hemispheres of the sensorimotor cortex. […] Briefly, animals were transcardially perfused with 40% PFA. The spinal cord was removed, postfixed in 4% PFA, and cryoprotected in sucrose (30%, Sigma) for 3-5 days. Spinal cord samples were shock frozen in methyl butane and cut into 20 μm thick sagittal cryostat slices. Sections were collected onto Histobond coated glass slides (Menzel, Germany). […] Briefly, sections were washed in PBS followed by incubation with avidin-Oregon (1:1000, in PBS) at 4° C. over night. […]

Substance: SDF-1α
- myelin-associated inhibition of neurite growth (DRG neurons; DRG neurons on PDL/laminin + myelin, SDF-1 Alpha 200 ng/ml (FIG. 3)): essentially neutralized
- neutralization of myelin inhibition, quantitative evaluation (DRG neurons; FIG. 4, dose dependence): dose-dependent neutralization
- myelin-induced inhibition of the neurite growth of DRG neurons in vitro (DRG neurons; concentration of 500 ng of SDF-1/ml): neutralized completely
- proportion of nuclei displaying phosphoCREB-immunoreactivity [1]: significantly increased
- animals that displayed extensive sprouting (CST-lesioned adult rats; SDF-1a infusion, none out of three Tris buffer-infused rats): Two out of three
- sprouting of BDA-labelled CST axons within the proximal stump (CST-lesioned adult rats; subdural infusion by mini-osmotic pump, 10 μM, 1 μl/h, 7 days, versus Tris buffer (FIG. 6)): enhanced sprouting
